Experimental data: patent publication US20260250318A1, “COMPOSITIONS AND METHODS FOR CROSSING THE BLOOD BRAIN BARRIER” (VOYAGER THERAPEUTICS, INC., priority 2022, published 2026)

How the values were obtained:
[1] = system: brains, heart, liver, muscle, and DRG of the NHPs; experiment: Maturation of TTM-001 and TTM-002 capsids, NGS enrichment in NHP tissues; format: in vivo; settings: relative to AAV9 control
Summary of the method: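 Variants carry mutations within and flanking the loop IV peptide insert: positions 450–466 were triplet-randomized, while positions 449–466 received low-frequency point mutations. The combined pool went into two NHPs, and each peptide was scored by NGS enrichment ratio against AAV9.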

brain = experiment: Matured TTM-001 and TTM-002 variants, NGS enrichment in mouse brain; format: in vivo, mice; settings: relative to AAV9 control
[2] = NGS fold-enrichment of matured AAV capsid variants, NHP brain, RNA
[3] = NGS fold-enrichment, DRG of NHPs
[4] = NGS fold-enrichment, RNA, brain of NHPs
[5] = NGS fold-enrichment, heart of NHPs
[6] = NGS fold-enrichment, liver DNA of NHPs
[7] = NGS fold-enrichment, liver RNA of NHPs
[8] = NGS fold-enrichment, muscle of NHPs
[9] = NGS fold-enrichment, brain of mice
[10] = NGS fold-enrichment of RNA, NHP brain
[11] = NGS fold-enrichment, NHP liver DNA
[12] = NGS fold-enrichment, NHP liver RNA
[13] = NGS fold-enrichment, NHP muscle
[14] = NGS fold-enrichment, mouse brain

For KTINGSGSPHSKAPNLQI, the “Fold Enrichment relative to AAV9, Brain (NHP)” value [1, 2] was 58.022 fold, the “Fold Enrichment relative to AAV9, DRG (NHP)” value ([1]; NHP DRG) was 0.000 fold and the “Fold Enrichment relative to AAV9, Heart (NHP)” value ([1]; NHP heart) was 0.044 fold. For the same sequence, the “Fold Enrichment relative to AAV9, Liver DNA (NHP)” value ([1]; NHP liver, DNA) was 0.243 fold, the “Fold Enrichment relative to AAV9, Liver RNA (NHP)” value ([1]; NHP liver, RNA) was 1.548 fold and the “Fold Enrichment relative to AAV9, Muscle (NHP)” value ([1]; NHP muscle) was 0.000 fold. For the same sequence, the “Fold Enrichment relative to AAV9, Brain (Mouse)” value (brain; mouse brain) was 55.714 fold.

With KTINGSGSPHSKAQRMNT the “Fold Enrichment relative to AAV9, Brain (NHP)” value [1, 2] was 50.686 fold, the “Fold Enrichment relative to AAV9, DRG (NHP)” value ([1]; NHP DRG) was 0.000 fold and the “Fold Enrichment relative to AAV9, Heart (NHP)” value ([1]; NHP heart) was 108.747 fold. For the same sequence, the “Fold Enrichment relative to AAV9, Liver DNA (NHP)” value ([1]; NHP liver, DNA) was 0.264 fold, the “Fold Enrichment relative to AAV9, Liver RNA (NHP)” value ([1]; NHP liver, RNA) was 0.943 fold and the “Fold Enrichment relative to AAV9, Muscle (NHP)” value ([1]; NHP muscle) was 0.019 fold. The “Fold Enrichment relative to AAV9, Brain (Mouse)” value (brain; mouse brain) was 97.975 fold.

With KTFNASGSPHSKAPNQQT the “Fold Enrichment relative to AAV9, DRG (NHP)” value [1, 3] was 0.208 fold, the “Fold Enrichment relative to AAV9, Brain (NHP)” value [1, 4] was 65.392 fold and the “Fold Enrichment relative to AAV9, Heart (NHP)” value [1, 5] was 0.000 fold. The “Fold Enrichment relative to AAV9, Liver DNA (NHP)” value [1, 6] was 0.156 fold, the “Fold Enrichment relative to AAV9, Liver RNA (NHP)” value [1, 7] was 0.215 fold and the “Fold Enrichment relative to AAV9, Muscle (NHP)” value [1, 8] was 0.000 fold. For the same sequence, the “Fold Enrichment relative to AAV9, Brain (Mouse)” value (brain; [9]) was 66.275 fold.

For KSIYGHESPHKSGQNQQS, the “Fold Enrichment relative to AAV9, Brain (NHP)” value [1, 10] was 90.947 fold, the “Fold Enrichment relative to AAV9, DRG (NHP)” value ([1]; NGS fold-enrichment, NHP DRG) was 0.817 fold and the “Fold Enrichment relative to AAV9, Heart (NHP)” value ([1]; NGS fold-enrichment, NHP heart) was 0.310 fold. For the same sequence, the “Fold Enrichment relative to AAV9, Liver DNA (NHP)” value [1, 11] was 0.243 fold, the “Fold Enrichment relative to AAV9, Liver RNA (NHP)” value [1, 12] was 0.000 fold and the “Fold Enrichment relative to AAV9, Muscle (NHP)” value [1, 13] was 0.000 fold. For the same sequence, the “Fold Enrichment relative to AAV9, Brain (Mouse)” value (brain; [14]) was 8.064 fold.

With KTSNASGSPHSKAQHQQT the “Fold Enrichment relative to AAV9, Brain (NHP)” value [1, 10] was 165.206 fold, the “Fold Enrichment relative to AAV9, DRG (NHP)” value ([1]; NGS fold-enrichment, NHP DRG) was 0.000 fold and the “Fold Enrichment relative to AAV9, Heart (NHP)” value ([1]; NGS fold-enrichment, NHP heart) was 0.000 fold. For the same sequence, the “Fold Enrichment relative to AAV9, Liver DNA (NHP)” value [1, 11] was 0.082 fold, the “Fold Enrichment relative to AAV9, Liver RNA (NHP)” value [1, 12] was 0.000 fold and the “Fold Enrichment relative to AAV9, Muscle (NHP)” value [1, 13] was 0.000 fold. For the same sequence, the “Fold Enrichment relative to AAV9, Brain (Mouse)” value (brain; [14]) was 40.558 fold.

In the case of KTVDGHDSPHKSGQKQQT, the “Fold Enrichment relative to AAV9, Brain (NHP)” value [1, 10] is reported as 78.802 fold, the “Fold Enrichment relative to AAV9, DRG (NHP)” value ([1]; NGS fold-enrichment, NHP DRG) is reported as 0.000 fold and the “Fold Enrichment relative to AAV9, Heart (NHP)” value ([1]; NGS fold-enrichment, NHP heart) is reported as 0.069 fold. The “Fold Enrichment relative to AAV9, Liver DNA (NHP)” value [1, 11] was 0.342 fold, the “Fold Enrichment relative to AAV9, Liver RNA (NHP)” value [1, 12] was 0.157 fold and the “Fold Enrichment relative to AAV9, Muscle (NHP)” value [1, 13] was 0.000 fold. For the same sequence, the “Fold Enrichment relative to AAV9, Brain (Mouse)” value (brain; [14]) was 7.200 fold.

For KTESWSGSPHSKAQNQQT, the “Fold Enrichment relative to AAV9, DRG (NHP)” value [1, 3] was 0.000 fold, the “Fold Enrichment relative to AAV9, Brain (NHP)” value [1, 4] was 69.144 fold and the “Fold Enrichment relative to AAV9, Heart (NHP)” value [1, 5] was 0.000 fold. The “Fold Enrichment relative to AAV9, Liver DNA (NHP)” value [1, 6] was 0.019 fold, the “Fold Enrichment relative to AAV9, Liver RNA (NHP)” value [1, 7] was 0.000 fold and the “Fold Enrichment relative to AAV9, Muscle (NHP)” value [1, 8] was 0.000 fold. For the same sequence, the “Fold Enrichment relative to AAV9, Brain (Mouse)” value (brain; [9]) was 67.699 fold.

For KTSNASGSPHSKAQNQLT, the “Fold Enrichment relative to AAV9, DRG (NHP)” value [1, 3] was 0.000 fold, the “Fold Enrichment relative to AAV9, Brain (NHP)” value [1, 4] was 73.501 fold and the “Fold Enrichment relative to AAV9, Heart (NHP)” value [1, 5] was 0.000 fold. For the same sequence, the “Fold Enrichment relative to AAV9, Liver DNA (NHP)” value [1, 6] was 0.313 fold, the “Fold Enrichment relative to AAV9, Liver RNA (NHP)” value [1, 7] was 0.000 fold and the “Fold Enrichment relative to AAV9, Muscle (NHP)” value [1, 8] was 0.297 fold. The “Fold Enrichment relative to AAV9, Brain (Mouse)” value (brain; [9]) was 150.401 fold.
